Measured values taken from ChEMBL document CHEMBL1148048, “Two new tryptophan-derived alkaloids from the Okinawan marine sponge Aplysina sp” (J Nat Prod, 1994).
Converted amounts (≈) assume the structure as drawn.

What was measured:
[1] = system: KB; assay: Cytotoxicity against human KB cells; format: functional, cell-based
[2] = system: L1210; assay: Cytotoxicity against mouse L1210 cells; format: functional, cell-based
[3] = system: KB; assay: Cytotoxicity against human KB cells at 20 ug/ml; format: functional

For `C/N=C1\N(C)C(=O)/C(=C\c2c[nH]c3ccccc23)N1C` [METHYLAPLYSINOPSIN], the IC50 [1] was 6.7 µg/mL (≈ 25 µM) and the IC50 [2] was 3.5 µg/mL (≈ 13 µM).
`C/N=C1\NC(=O)/C(=C\c2c[nH]c3ccccc23)N1C` [ISOPLYSIN A] gave an inhibition at 20 µg/mL [3] of 31% and an IC50 [2] of 11.5 µg/mL (≈ 45.2 µM).
With `CN1C(=N)N(C)/C(=C/c2c[nH]c3ccccc23)C1=O` [APLYSINOPSIN] the IC50 [1] was 6.4 µg/mL (≈ 25.2 µM) and the IC50 [2] was 2.3 µg/mL (≈ 9.04 µM).
